Source: ChEMBL document CHEMBL1136879, “Studies on novel 2-imidazolidinones and tetrahydropyrimidin-2(1H)-ones as potential TACE inhibitors: design, synthesis, molecular modeling, and preliminary biological evaluation” (Bioorg Med Chem, 2009)

Target: Disintegrin and metalloproteinase domain-containing protein 17 (Homo sapiens) (UniProt P78536)
Assay: Inhibition of TACE in human THP1 cell lysate at 0.1 uM/L by spectrofluorimetric ELISA relative to control
Assay type: cell-free
Conditions: THP-1

Disintegrin and metalloproteinase domain-containing protein 17 (Homo sapiens), sequence (P78536 whole entry, the tested form may be a part): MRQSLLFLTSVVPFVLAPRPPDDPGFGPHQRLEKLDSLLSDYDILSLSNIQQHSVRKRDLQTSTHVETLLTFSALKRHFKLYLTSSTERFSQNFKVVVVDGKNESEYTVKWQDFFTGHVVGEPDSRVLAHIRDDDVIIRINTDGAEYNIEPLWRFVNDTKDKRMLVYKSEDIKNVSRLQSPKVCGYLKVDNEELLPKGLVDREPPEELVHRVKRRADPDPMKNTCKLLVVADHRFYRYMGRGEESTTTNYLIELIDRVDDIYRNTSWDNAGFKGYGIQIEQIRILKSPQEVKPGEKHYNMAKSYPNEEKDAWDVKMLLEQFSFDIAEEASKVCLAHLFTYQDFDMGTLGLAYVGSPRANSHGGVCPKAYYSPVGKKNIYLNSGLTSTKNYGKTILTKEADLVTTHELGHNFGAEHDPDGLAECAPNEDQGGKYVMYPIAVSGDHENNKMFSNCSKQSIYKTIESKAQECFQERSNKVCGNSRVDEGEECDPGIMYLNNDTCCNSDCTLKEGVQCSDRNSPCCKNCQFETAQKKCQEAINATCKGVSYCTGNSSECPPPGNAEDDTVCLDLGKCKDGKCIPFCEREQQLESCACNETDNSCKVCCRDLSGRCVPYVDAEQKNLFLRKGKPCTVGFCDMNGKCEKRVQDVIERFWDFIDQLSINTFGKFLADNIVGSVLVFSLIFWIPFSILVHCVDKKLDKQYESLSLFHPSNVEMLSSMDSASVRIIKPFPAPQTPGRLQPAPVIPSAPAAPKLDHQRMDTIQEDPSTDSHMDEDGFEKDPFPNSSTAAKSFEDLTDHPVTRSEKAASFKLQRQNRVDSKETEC

An inhibition of 31% was found for `CC(C(=O)O)N1CCCN(c2ccc(OCc3cc(-c4ccccc4)nc4ccccc34)cc2)C1=O` (centres undefined) in this work.

An inhibition of 42% was found for `COc1ccc(CSc2ccc(N3CCN(C(C)C(=O)NO)C3=O)cc2)cc1` (centres undefined) in this work.

An inhibition of 28% was found for `CC(C(=O)NO)N1CCCN(c2ccc(OCc3ccccc3)cc2)C1=O` (centres undefined) in this work.

An inhibition of 47% was found for `CC(C)Cc1cc(COc2ccc(N3CCN(C(C)C(=O)O)C3=O)cc2)c2ccccc2n1` (centres undefined) in this work.

An inhibition of 40% was found for `CC(C(=O)NO)N1CCN(c2cccc(OCc3ccc([N+](=O)[O-])cc3)c2)C1=O` (centres undefined) in this work.

An inhibition of 35% was found for `CC(C(=O)O)N1CCCN(c2ccc(OCc3ccccn3)cc2)C1=O` (centres undefined) in this work.

An inhibition of 39% was found for `CC(C(=O)NO)N1CCN(c2cccc(OCc3ccccc3)c2)C1=O` (centres undefined) in this work.

An inhibition of 60% was found for `CC(C)Cc1cc(COc2ccc(N3CCN(C(C)C(=O)NO)C3=O)cc2)c2ccccc2n1` (centres undefined) in this work.

An inhibition of 40% was found for `COc1ccc(CSc2ccc(N3CCN(C(C)C(=O)O)C3=O)cc2)cc1` (centres undefined) in this work.

An inhibition of 30% was found for `CC(C(=O)O)N1CCN(c2ccc(OCc3ccc(-c4ccccc4)cc3)cc2)C1=O` (centres undefined) in this work.

An inhibition of 62% was found for `CCc1cc(COc2ccc(N3CCN(C(C)C(=O)NO)C3=O)cc2)c2ccccc2n1` (centres undefined) in this work.

An inhibition of 40% was found for `CC(C(=O)NO)N1CCCN(c2ccc(OCc3cccc4ccccc34)cc2)C1=O` (centres undefined) in this work.

An inhibition of 28% was found for `CC(C)C[C@H](CC(=O)NO)C(=O)N[C@@H](C)C(=O)N(c1cccc2ccccc12)[C@@H](C)C(=O)NCCN` in this work.

An inhibition of 28% was found for `CC(C(=O)O)N1CCCN(c2ccc(OCc3ccc(-c4ccccc4)cc3)cc2)C1=O` (centres undefined) in this work.

An inhibition of 28% was found for `CC(C(=O)O)N1CCN(c2ccc(OCc3ccccn3)cc2)C1=O` (centres undefined) in this work.

An inhibition of 34% was found for `CCc1cc(COc2ccc(N3CCCN(C(C)C(=O)NO)C3=O)cc2)c2ccccc2n1` (centres undefined) in this work.

An inhibition of 49% was found for `CCc1cc(COc2ccc(N3CCN(C(C)C(=O)O)C3=O)cc2)c2ccccc2n1` (centres undefined) in this work.

An inhibition of 37% was found for `CC(C(=O)NO)N1CCCN(c2ccc(OCc3ccccn3)cc2)C1=O` (centres undefined) in this work.

An inhibition of 18% was found for `COc1ccc(COc2ccc(N3CCCN(C(C)C(=O)NO)C3=O)cc2)cc1` (centres undefined) in this work.

An inhibition of 38% was found for `COc1ccc(COc2ccc(N3CCN(C(C)C(=O)NO)C3=O)cc2)cc1` (centres undefined) in this work.

An inhibition of 20% was found for `CC(C)Cc1cc(COc2ccc(N3CCCN(C(C)C(=O)O)C3=O)cc2)c2ccccc2n1` (centres undefined) in this work.

An inhibition of 30% was found for `CC(C(=O)O)N1CCN(c2ccc(OCc3cc(-c4ccccc4)nc4ccccc34)cc2)C1=O` (centres undefined) in this work.

An inhibition of 36% was found for `CC(C(=O)NO)N1CCN(c2ccc(OCc3cccc4ccccc34)cc2)C1=O` (centres undefined) in this work.

An inhibition of 50% was found for `CC(C(=O)NO)N1CCN(c2ccc(OCc3ccccn3)cc2)C1=O` (centres undefined) in this work.
